Consider 36 compounds from article PMC3857224, “Inhibition of DNA Glycosylases via Small Molecule Purine Analogs” (PLoS ONE, 2013).

pIC50: −log10 of the molar value.

The test system of one series is NEIL1-depleted cells. Further details: method as in PMID 21131780. The note with it: minimally toxic doses, siRNA NEIL1 depletion; cited from earlier work.
Series [1] has as its target T1, NEIL1 (Homo sapiens, UniProt Q96FI4).
T1 construct: made in house
In words: qHTS fluorogenic glycosylase/AP lyase assay, 1536-well, Sp/Gh substrate. The format is biochemical. The note with it: 5 concentrations. Here is the method:
The fluorogenic assay was miniaturized to 4 µL in 1536-well black solid plates by optimization of the enzyme and Sp/Gh substrate concentrations. Briefly, 3 µL of 25 nM NEIL1 were dispensed into each well of a 1536-well plate (except buffer in columns 3 and 4 as a negative control). Compounds (DMSO solutions) and control (DMSO only) (23 nL) were transferred to the plate via Kalypsys pintool. The plate was incubated for 15 min at room temperature, and then 1 µL of the Sp/Gh-containing DNA substrate (75 nM final concentration) was added to start the reaction. The plate was immediately transferred into the ViewLux reader for the kinetic fluorescence read. Initial rate data were normalized against uninhibited and no-enzyme controls and the resulting percent activities as a function of compound concentration were fitted using the Hill equation.
Having established the general principle for a glycosylase screening assay, further assay development was undertaken to enable HTS in which the reaction volumes were reduced by 5-fold to a total of 4 µL. Initially, the library of pharmacologically active compounds (LOPAC^1280) was screened for inhibitors of NEIL1 as a determination of the feasibility of this high-throughput method. […] All compounds were screened at 5 different concentrations that allowed for the initial estimation of inhibitory potency (IC50) values, as well as an evaluation of the shape of the response curves. In addition to the anticipated inhibitors (known DNA intercalators, such as ellipticine (IC50 = 2 µM)) and other small molecules that have been previously established to be promiscuous inhibitors (such as aurintricarboxylic acid (IC50<1 µM)), one interesting hit from this screen was CGP-74514A (NCGC ID is NCGC00015229) (Figure 5A). CGP-74514A is a known small molecule inhibitor of Cdk1 in which the structure of this molecule is based on a purine ring backbone.
(Quantitative high-throughput screening tests each substance at several concentrations.)

Series [2] addresses T1, NEIL1. In words: gel-based incision assay of oligodeoxynucleotides containing site-specific base lesions. Format: biochemical. The note with it: polyacrylamide gel, reaction quenched at 20 min. Here is the method: The 384-well fluorogenic assay was carried out in a 20 µL reaction mixture in 20 mM Tris-HCl pH 8.0, 100 mM KCl, and 0.1% BSA, with 5 nM active enzyme and 50 nM substrate. Possible inhibitors were incubated with the enzyme for at least 5 min at room temperature in a black, low-volume 384-well plate before addition of an equal volume of substrate to start the reaction. The plates were spun for 30 s at 1000 rcf to remove bubbles. The reactions were incubated at 37°C and fluorescence data collected on an Infinite M200 (Tecan, Mannedorf, Switzerland) equipped with standard optics (excitation filter 525 nm, and emission filter 598 nm). For the gel-based assay, reactions were initiated as described for the fluorogenic assay, but quenched with 20 µL 95% formamide at 20 min. The products were separated by electrophoresis through a 15% polyacrylamide gel containing 8 M urea and visualized by a Typhoon scanner (GE Life Sciences, Piscataway, NJ). The fraction of cleaved product was measured using ImageQuant software and analyzed using GraphPad Prism 6. […]

Series [3] concerns the target T1, NEIL1. In words: NEIL1 excision of FapyAde and FapyGua from γ-irradiated calf thymus DNA by GC-MS/MS. Format: biochemical. To be noted: 10 µL of 2 mM inhibitor in DMSO, 1 h 37°C. On the procedure: The enzymatic activity of NEIL1 was measured using gas chromatography/isotope-dilution tandem mass spectrometry (GC-MS/MS) and calf thymus DNA samples γ-irradiated at 20 Gy as described, [30]. Aliquots of FapyAde-^13C,^15N2 and FapyGua-^13C,^15N2 were added as internal standards to 50 µg of DNA samples. After drying in a SpeedVac, DNA samples were dissolved in 50 µL of an incubation buffer consisting of 50 mM phosphate buffer (pH 7.4), 100 mM KCl, 1 mM EDTA, and 0.1 mM dithiothreitol, and then incubated with 2 µg NEIL1 for 1 h at 37°C without any inhibitor, DMSO alone, or with 10 µL of an inhibitor solution in DMSO (2 mM). After incubation, 150 µL of cold ethanol was added. The samples were kept at −20°C for 1 h and then centrifuged with 14,000 g for 30 min at 4°C. The supernatant fractions were separated and ethanol removed in a SpeedVac under vacuum. The samples were then frozen in liquid nitrogen and lyophilized overnight. To fully remove DMSO that would interfere with GC-MS/MS analysis, 500 µL water were added to the samples followed by lyophilization overnight. This procedure was repeated twice. Dried samples were derivatized and analyzed by GC-MS/MS as described, [30]. For each data point, three independently prepared samples were used.
Although Gh and Sp are excellent substrates for NEIL1, these are likely not to be the biologically relevant substrates. Thus, to determine if the compounds that were identified above were effective in the inhibition of NEIL1 against its biologically relevant substrates FapyAde and FapyGua, [6], γ-irradiated calf thymus DNA was used as a substrate. The excision by NEIL1 of these substrates from DNA was measured by GC-MS/MS with isotope-dilution. Figure 8 illustrates the excision of FapyAde and FapyGua by NEIL1 from γ-irradiated calf thymus DNA in the absence or presence of inhibitors. […] Some inhibition by DMSO alone was also observed when compared with excision by NEIL1 alone (p = 0.01). However, when compared to DMSO, the inhibitions by P2, P6, P7 and P8 were highly significant (p<0.005). […] A p-value<0.05 was assumed to correspond to statistical significance.

T1 sequence (Q96FI4 whole entry): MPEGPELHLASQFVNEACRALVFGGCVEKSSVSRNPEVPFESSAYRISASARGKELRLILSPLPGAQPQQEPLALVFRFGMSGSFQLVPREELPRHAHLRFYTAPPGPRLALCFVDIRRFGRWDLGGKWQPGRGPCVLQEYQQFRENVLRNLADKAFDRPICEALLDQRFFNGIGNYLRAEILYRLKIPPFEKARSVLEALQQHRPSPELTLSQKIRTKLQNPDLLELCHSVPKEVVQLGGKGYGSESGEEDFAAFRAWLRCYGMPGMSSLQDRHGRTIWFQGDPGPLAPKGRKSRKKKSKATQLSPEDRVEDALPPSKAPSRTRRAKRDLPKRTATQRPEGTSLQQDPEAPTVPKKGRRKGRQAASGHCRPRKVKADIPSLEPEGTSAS

As to `Nc1nc(N)c2nc(CNc3ccc(C(=O)N[C@@H](CCC(=O)O)C(=O)O)cc3)cnc2n1` [AMT, aminopterin], the “increased cytotoxicity in NEIL1-depleted cells” value (shortened to “increased cytotoxicity”) in the series on NEIL1-depleted cells is 7 fold.
Take `CN(Cc1cnc2nc(N)nc(N)c2n1)c1ccc(C(=O)N[C@@H](CCC(=O)O)C(=O)O)cc1` [MTX, methotrexate]: in the series on NEIL1-depleted cells, the “increased cytotoxicity” value is on record as 10 fold.
`Cc1ccc2nc(N)[nH]c(=O)c2c1Sc1ccncc1` [NOL, nolatrexed]: in the series with NEIL1-depleted cells, the “increased cytotoxicity” value was 5 fold.
One may read the pIC50 as the negative decadic logarithm of the IC50, by convention in mol/L. Low values mean a high IC50, high ones a low IC50. `N#Cc1nc(Nc2cc(F)cc(F)c2)c2ncn(CCN3CCCC3)c2n1` [Purine P1]: the pIC50 on NEIL1 [1] is 5.44; on NEIL1 [2] it was less than 4.30.
On the same counts, the results for `O=C(OCC1OC(n2cnc3c(N(C(=O)c4ccccc4)C(=O)c4ccccc4)ncnc32)C(O)C1F)c1ccccc1` (stereo not drawn) [Purine P3] are 5.49 and less than 4.30.
The like results for `N#Cc1nc(Nc2cc(F)cc(F)c2)c2ncn(CCCN3CCCC3)c2n1` [Purine P5] were, in that order, 5.10 and less than 4.30.
The like results for `CCNc1nc(C#N)nc2c1ncn2-c1cccc(Cl)c1` [Purine P10] were, in that order, 5.00 and less than 4.30.
Turning to `C=CC(=O)N1CCCC(Nc2nc(Nc3ccc(N(C)C(=O)CC)cc3C)nc3nc[nH]c23)C1` (stereo not drawn) [Purine P12], the pIC50 on NEIL1 [1] is 4.95; at NEIL1 [2] it was less than 4.70.
On the same counts, the results for `CC(C)n1cnc2c(N(C)c3ccccc3)nc(N(CCN(C)C)Cc3ccccc3)nc21` [Purine P13] are 4.90 and less than 4.30.
On the same counts, the results for `Nc1ncnc2c1ncn2[C@@H]1O[C@H](CNCc2cccc(C#Cc3ccccc3)c2)[C@@H](O)[C@H]1O` [Purine P14] are 4.90 and less than 4.30.
Consider `CC(C)CNc1ncnc2c1ncn2[C@H]1CN(Cc2ccc(-c3ccccc3)cc2)C[C@@H](CO)O1` [Purine P15], for which the negative-log IC50 (pIC50) was 4.85 against NEIL1 [1] and less than 4.30 on NEIL1 [2].
On the same counts, the results for `CN(C)CCNc1ncnc2c1ncn2[C@H]1CN(Cc2ccc(-c3ccccc3)cc2)C[C@@H](CO)O1` [Purine P16] are 4.80 and less than 4.30.
On the same counts, the results for `O=C(C1CCCN(c2ncnc3c2nc2n3CCCCC2)C1)N1CCN(c2cccc(Cl)c2)CC1` (stereo not drawn) [Purine P17] are 4.80 and less than 4.30.
On to `Cc1cc(/C=C/C#N)cc(C)c1Nc1nc(Nc2ccc3n[nH]nc3c2)c2[nH]cnc2n1` [Purine P18], for which the pIC50 was 4.75 against NEIL1 [1] and less than 4.30 against NEIL1 [2].
Consider `O=C(C1CCN(c2ncnc3c2nc2n3CCCCC2)CC1)N1CCN(c2cccc(Cl)c2)CC1` [Purine P19], for which the pIC50 against NEIL1 [1] is 4.70; against NEIL1 [2], less than 4.70. Further, the “inhibition of NEIL1 excision of FapyAde and FapyGua” value against NEIL1 [3] is reported as “no inhibition”.
For `Cc1ccc(C(=O)Nc2cccc(C(F)(F)F)c2)cc1Nc1ncnc2nc[nH]c12` [Purine P20], the results for the pIC50 against NEIL1 [1] and against NEIL1 [2] were 4.65 and less than 4.30, respectively.
On the same counts, the results for `Cc1ccc(NC(=O)C2CCCN(c3ncnc4c3nc3n4CCCCC3)C2)cc1Cl` (stereo not drawn) [Purine P22] are 4.60 and less than 4.30.
For `Cc1cc(C)c(CN2CCN(C(=O)Cn3cnc4c(NCc5ccccc5)ncnc43)CC2)c(C)c1` [Purine P25], the pIC50 is 4.50 against NEIL1 [1] and less than 4.70 on NEIL1 [2].
The like results for `c1ccc(COc2ccc(Nc3ncnc4nc[nH]c34)cc2)cc1` [Purine P26] were, in that order, 4.50 and less than 4.70.
On the same counts, the results for `CC(=O)c1ccc(N2CCN(C(=O)C3CCCN(c4ncnc5c4nc4n5CCCCC4)C3)CC2)cc1` (stereo not drawn) [Purine P27] are 6.22 and less than 4.30.
On the same counts, the results for `CCc1cccc(NC(=O)C2CCCN(c3ncnc4c3nc3n4CCCCC3)C2)c1` (stereo not drawn) [Purine P28] are 6.15 and less than 4.70.
As for `CC(=O)OC[C@@H]1CN(Cc2ccccc2)C[C@H](n2cnc3c(NCc4ccc(F)cc4)ncnc32)O1` [Purine P29], the values for the negative logarithm of the IC50 (pIC50) against NEIL1 [1] and against NEIL1 [2] were 6.05 and less than 4.30, respectively.
On the same counts, the results for `CNC(=O)[C@H]1O[C@H](n2cnc3c(NCc4cccc(I)c4)ncnc32)[C@@H](O)[C@@H]1O` [Purine P30] are 5.74 and less than 4.30.
On the same counts, the results for `Cc1ccccc1CN1CCC(CNC(=O)C2CCCN(c3ncnc4c3nc3n4CCCCC3)C2)CC1` (stereo not drawn) [Purine P31] are 5.15 and less than 4.30.
The like results for `CC(C)[C@H](CO)N(Cc1cccc(F)c1)c1nc(Nc2cccc(Cl)c2)c2ncn(C(C)C)c2n1` [Purine P32] were, in that order, 5.15 and 4.71.
With `CC(C)n1cnc2c(NCc3ccccc3)nc(NCc3ccccc3)nc21` [Purine P33], the negative-log IC50 (pIC50) at NEIL1 [1] was 5.10; against NEIL1 [2], less than 4.30.
The like results for `COc1cccc(-c2cc(CNC(=O)[C@H]3O[C@@H](n4cnc5c(N)ncnc54)[C@H](O)[C@@H]3O)no2)c1` [Purine P34] were, in that order, 5.00 and less than 4.30.
On the same counts, the results for `COc1ccc2[nH]cc(CCNC(=O)/C=C/[C@H]3O[C@@H](n4cnc5c(NC(=O)c6ccccc6)ncnc54)[C@H](O)[C@@H]3O)c2c1` [Purine P35] are 4.95 and less than 4.30.
`Nc1nc(N)c2[nH]c(-c3ccccc3)nc2n1` [Purine P36]: the pIC50 is 4.81 on NEIL1 [1] and less than 4.30 at NEIL1 [2].
`COc1ccccc1CNC(=O)C1CCN(c2ncnc3c2nc2n3CCCCC2)CC1` [Purine P37]: the pIC50 against NEIL1 [1] is 5.00; against NEIL1 [2] it was less than 4.30.
On the same counts, the results for `OC[C@@H]1CN(Cc2ccccc2)C[C@H](n2cnc3c(N4CCN(c5ccccc5)CC4)ncnc32)O1` [Purine P38] are 6.52 and less than 4.30.
The like results for `Cc1cccc(OCCSc2nc3c([nH]2)c(=N)ncn3Cc2ccccc2)c1` [Purine P39] were, in that order, 6.22 and less than 4.30.
On the same counts, the results for `COc1ccc(CNc2nc(NCc3ccc(OC)cc3)c3[nH]cnc3n2)cc1` [Purine P40] are 6.22 and less than 4.30.
As for `O=C(C1CCCN(c2ncnc3c2nc2n3CCCCC2)C1)N1CCN(c2ccc(F)cc2)CC1` (stereo not drawn) [Purine P41], the pIC50 against NEIL1 [1] is 6.10; against NEIL1 [2], less than 4.30.
The like results for `CCOCCCNc1ncnc2c1nc1n2CCCC1` [Purine P42] were, in that order, 6.10 and less than 4.30.
Consider `O=C(O)C1=CC(=C(c2ccc(O)c(C(=O)O)c2)c2ccc(O)c(C(=O)O)c2)C=CC1=O` [aurintricarboxylic acid, reference compound], for which the pIC50 against NEIL1 [1] was greater than 6.00.
